Measured values reported in article PMC8305912, “The HDAC/HSP90 Inhibitor G570 Attenuated Blue Light-Induced Cell Migration in RPE Cells and Neovascularization in Mice through Decreased VEGF Production” (Molecules, 2021).

Key:
[1] = tested on: HeLa nuclear extract HDAC; assay: HeLa nuclear extract HDAC activity assay; assay type: biochemical; conditions: HeLa nuclear extract as HDAC source
Hsp90α = target: T1, Hsp90α (Homo sapiens, UniProt P07900); assay: Heat shock protein (Hsp) 90α activity assay (fluorescence polarization, FITC-labeled geldanamycin); assay type: binding; conditions: read-out: HSP90 IC50
T1 construct: purchased BPS Bioscience

[2] = tested on: laser-induced choroidal neovascularization (CNV); assay: Laser-induced choroidal neovascularization (CNV) model, fundus fluorescein angiography; assay type: in vivo, C57BL/6 mice; conditions: day 7, vs vehicle; G570 20 mg/kg/day i.p. days 0, 1, 3, 5; Eylea 40 μg/1 μL per eye i.v.t. day 0

Row | IC50 (Hsp90α) [nM] | Molecule | other results
1 |  | COc1c(C)cnc(Cn2cnc3c(Cl)nc(N)nc32)c1C [BIIB021] | IC50 [1]: > 1000 nM
2 | 49.3 ± 1.6 | CC(C)c1cc(C(=O)N2CCc3cc(NC(=O)CCC(=O)NO)ccc32)c(O)cc1O [Compound 1, N1-(1-(2,4-dihydroxy-5-isopropylbenzoyl)indolin-5-yl)-N4-hydroxysuccinamide] | 
3 | 55.9 ± 3.2 | CC(C)c1cc(C(=O)N2CCc3cc(NC(=O)CCCC(=O)NO)ccc32)c(O)cc1O [Compound 2, N1-(1-(2,4-dihydroxy-5-isopropylbenzoyl)indolin-5-yl)-N5-hydroxyglutaramide] | 
4 | 40.2 ± 5.2 | CC(C)c1cc(C(=O)N2CCc3cc(NC(=O)CCCCCC(=O)NO)ccc32)c(O)cc1O [Compound 4, N1-(1-(2,4-dihydroxy-5-isopropylbenzoyl)indolin-5-yl)-N7-hydroxyheptanediamide] | 
5 | 52.1 ± 2.9 | CC(C)c1cc(C(=O)N2CCc3cc(NC(=O)CCCCCCCC(=O)NO)ccc32)c(O)cc1O [Compound 6, N1-(1-(2,4-dihydroxy-5-isopropylbenzoyl)indolin-5-yl)-N9-hydroxynonanediamide] | 
6 | 58.6 ± 2.2 | CC(C)c1cc(C(=O)N2CCc3cc(NC(=O)CCCCCCCCC(=O)NO)ccc32)c(O)cc1O [Compound 7, N1-(1-(2,4-dihydroxy-5-isopropylbenzoyl)indolin-5-yl)-N10-hydroxydecanediamide] | 
7 | > 1000 | O=C(CCCCCCC(=O)Nc1ccccc1)NO [SAHA, reference compound] | 
8 |  | aflibercept [Eylea] | laser-induced leakage area of fluorescein (FFA) [2]: significantly decreased
